Source: patent US10681909B2, “Herbicidal triazoles” (FMC Corporation, priority 2014, dated 2020)

How the values were obtained:
speedwell = experiment: Test D postemergence; format: in vivo, Veronica persica; conditions: scale 0 to 100
Procedure, shortened: (§1)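 Both application timings used one formulation, a non-phytotoxic solvent mixture with surfactant. Preemergence pots held silt loam, and postemergence plants grew in peat moss/vermiculite medium to the 1- to 4-leaf stage. All plants were held under controlled conditions for 14 to 21 d before visual scoring relative to controls.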

galium = experiment: Test A postemergence; format: in vivo, Galium aparine; conditions: 0 to 100 scale (0 no effect, 100 complete control), approx. 10 d
Procedure, shortened: (§2)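 Visual injury score, 0 (no effect) to 100 (complete control), taken about 10 d after treatment against untreated greenhouse controls. Chemicals formulated in non-phytotoxic solvent plus surfactant; preemergence by directed soil spray onto sown loam/sand, postemergence onto one- to two-leaf plants.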

Russian thistle = experiment: Test D preemergence; format: in vivo, Salsola kali; conditions: for Plant response rating: Russian Thistle: scale 0 to 100
From the text: Seeds of plant species selected from bluegrass (annual bluegrass, Poa annua), blackgrass (Alopecurus myosuroides), canarygrass (Phalaris minor), chickweed (common chickweed, Stellaria media), galium (catchweed bedstraw, Galium aparine), bromegrass, down (downy bromegrass, Bromus tectorum), Russian thistle (Salsola kali), field poppy (Papaver rhoeas), field violet (Viola arvensis), foxtail, green (green foxtail, Setaria viridis), deadnettle (henbit deadnettle, Lamium amplexicaule), ryegrass, Ital. (Italian ryegrass, Lolium multiflorum), kochia (Kochia scoparia), lambsquarters (Chenopodium album), oilseed rape (Brassica napus), pigweed (Amaranthus retroflexus), chamomile (scentless chamomile, Matricaria inodora), speedwell (bird's-eye speedwell, Veronica persica), barley, spring (spring barley, Hordeum vulgare), wheat, spring (spring wheat, Triticum aestivum), buckwheat, wild (wild buckwheat, Polygonum convolvulus), wild mustard (Sinapis arvensis), oat, wild (wild oat, Avena fatua), radish, wild (wild radish, Raphanus raphanistrum), […]), barley, winter (winter barley, Hordeum vulgare), and wheat, winter (winter wheat, Triticum aestivum) were planted into a silt loam soil and treated preemergence with test chemicals formulated in a non-phytotoxic solvent mixture which included a surfactant. At the same time, these species were planted in pots containing Sunshine Redi-Earth® planting medium comprising spaghnum peat moss, vermiculite, starter nutrients and dolomitic limestone and treated with postemergence applications of the test chemicals formulated in the same manner. Plants ranged in height from 2 to 18 cm (1- to 4-leaf stage). Treated plants and controls were maintained in a controlled growth environment for 14 to 21 d after which time all species were compared to controls and visually evaluated. […] A dash (-) response means no test result.

field violet = experiment: Test D postemergence; format: in vivo, Viola arvensis; conditions: scale 0 to 100
Procedure, shortened: as §1

oat, wild [1] = experiment: Test D postemergence; format: in vivo, Avena fatua; conditions: scale 0 to 100
Procedure, shortened: as §1

lambsquarters [2] = experiment: Test D postemergence; format: in vivo, Chenopodium album; conditions: scale 0 to 100
Procedure, shortened: as §1

chickweed = experiment: Test D preemergence; format: in vivo, Stellaria media; conditions: for Plant response rating: Chickweed: scale 0 to 100
Procedure, shortened: as §1

kochia = experiment: Test A postemergence; format: in vivo, Kochia scoparia; conditions: 0 to 100 scale (0 no effect, 100 complete control), approx. 10 d
Procedure, shortened: as §2

oat, wild [3] = experiment: Test D preemergence; format: in vivo, Avena fatua; conditions: for Plant response rating: Oat, Wild: scale 0 to 100
Procedure, shortened: as §1

deadnettle = experiment: Test D preemergence; format: in vivo, Lamium amplexicaule; conditions: for Plant response rating: Deadnettle: scale 0 to 100
Procedure, shortened: as §1

wheat, spring = experiment: Test D postemergence; format: in vivo, Triticum aestivum; conditions: scale 0 to 100
Procedure, shortened: as §1

wheat, winter = experiment: Test D postemergence; format: in vivo, Triticum aestivum; conditions: scale 0 to 100
Procedure, shortened: as §1

buckwheat, wild = experiment: Test D postemergence; format: in vivo, Polygonum convolvulus; conditions: scale 0 to 100
Procedure, shortened: as §1

oilseed rape = experiment: Test D postemergence; format: in vivo, Brassica napus; conditions: scale 0 to 100
Procedure, shortened: as §1

radish, wild = experiment: Test D postemergence; format: in vivo, Raphanus raphanistrum; conditions: scale 0 to 100
Procedure, shortened: as §1

wild mustard = experiment: Test D postemergence; format: in vivo, Sinapis arvensis; conditions: scale 0 to 100
Procedure, shortened: as §1

lambsquarters [4] = experiment: Test D preemergence; format: in vivo, Chenopodium album; conditions: for Plant response rating: Lambsquarters: scale 0 to 100
Procedure, shortened: as §1

foxtail, green = experiment: Test D preemergence; format: in vivo, Setaria viridis; conditions: for Plant response rating: Foxtail, Green: scale 0 to 100
Procedure, shortened: as §1

[5] = 16 g ai/ha, 0 is no effect, 100 is complete control

CCOc1nc(-c2ccccc2)nn1Cc1ccnc(C(F)(F)F)c1 [Compound 27]
Plant response rating: Speedwell (speedwell; 16 g ai/ha): 75
Plant response rating: Speedwell (speedwell; 31 g ai/ha): 85
Plant response rating: Speedwell (speedwell; 62 g ai/ha): 95
Plant response rating: Speedwell (speedwell; 125 g ai/ha): 95
Plant response rating, Galium (galium; 125 g ai/ha): 80
Plant response rating, Galium (galium; 500 g ai/ha): 90
Plant response rating (0 to 100), Russian Thistle (Russian thistle; [5]): 75
Plant response rating: Russian Thistle (Russian thistle; 62 g ai/ha): 85
Plant response rating: Russian Thistle (Russian thistle; 125 g ai/ha): 85
Plant response rating: Field Violet (field violet; 16 g ai/ha): 70
Plant response rating: Field Violet (field violet; 31 g ai/ha): 75
Plant response rating: Field Violet (field violet; 62 g ai/ha): 80
Plant response rating: Field Violet (field violet; 125 g ai/ha): 80
Plant response rating: Oat, Wild (oat, wild [1]; 16 g ai/ha): 35
Plant response rating: Oat, Wild (oat, wild [1]; 31 g ai/ha): 45
Plant response rating: Oat, Wild (oat, wild [1]; 62 g ai/ha): 50
Plant response rating: Oat, Wild (oat, wild [1]; 125 g ai/ha): 60
Plant response rating: Lambsquarters (lambsquarters [2]; 16 g ai/ha): 85
Plant response rating: Lambsquarters (lambsquarters [2]; 31 g ai/ha): 95
Plant response rating: Lambsquarters (lambsquarters [2]; 62 g ai/ha): 95
Plant response rating: Lambsquarters (lambsquarters [2]; 125 g ai/ha): 95
Plant response rating (0 to 100), Chickweed (chickweed; [5]): 85
Plant response rating: Chickweed (chickweed; 31 g ai/ha): 95
Plant response rating: Chickweed (chickweed; 62 g ai/ha): 100
Plant response rating: Chickweed (chickweed; 125 g ai/ha): 100
Plant response rating, Kochia (kochia; 125 g ai/ha): 90
Plant response rating, Kochia (kochia; 500 g ai/ha): 90
Plant response rating (0 to 100), Oat, Wild (oat, wild [3]; [5]): 25
Plant response rating: Oat, Wild (oat, wild [3]; 62 g ai/ha): 45
Plant response rating: Oat, Wild (oat, wild [3]; 125 g ai/ha): 75
Plant response rating (0 to 100), Deadnettle (deadnettle; [5]): 80
Plant response rating: Deadnettle (deadnettle; 31 g ai/ha): 100
Plant response rating: Deadnettle (deadnettle; 62 g ai/ha): 100
Plant response rating: Deadnettle (deadnettle; 125 g ai/ha): 100
Plant response rating: Wheat, Spring (wheat, spring; 16 g ai/ha): 15
Plant response rating: Wheat, Spring (wheat, spring; 31 g ai/ha): 15
Plant response rating: Wheat, Spring (wheat, spring; 62 g ai/ha): 20
Plant response rating: Wheat, Spring (wheat, spring; 125 g ai/ha): 35
Plant response rating: Wheat, Winter (wheat, winter; 16 g ai/ha): 25
Plant response rating: Wheat, Winter (wheat, winter; 31 g ai/ha): 25
Plant response rating: Wheat, Winter (wheat, winter; 62 g ai/ha): 30
Plant response rating: Wheat, Winter (wheat, winter; 125 g ai/ha): 30
Plant response rating: Buckwheat, Wild (buckwheat, wild; 16 g ai/ha): 65
Plant response rating: Buckwheat, Wild (buckwheat, wild; 31 g ai/ha): 80
Plant response rating: Buckwheat, Wild (buckwheat, wild; 62 g ai/ha): 70
Plant response rating: Buckwheat, Wild (buckwheat, wild; 125 g ai/ha): 85
Plant response rating: Oilseed Rape (oilseed rape; 16 g ai/ha): 80
Plant response rating: Oilseed Rape (oilseed rape; 31 g ai/ha): 85
Plant response rating: Oilseed Rape (oilseed rape; 62 g ai/ha): 90
Plant response rating: Oilseed Rape (oilseed rape; 125 g ai/ha): 100
Plant response rating: Radish, Wild (radish, wild; 16 g ai/ha): 85
Plant response rating: Radish, Wild (radish, wild; 31 g ai/ha): 90
Plant response rating: Radish, Wild (radish, wild; 62 g ai/ha): 100
Plant response rating: Radish, Wild (radish, wild; 125 g ai/ha): 100
Plant response rating: Mustard, Wild (wild mustard; 16 g ai/ha): 80
Plant response rating: Mustard, Wild (wild mustard; 31 g ai/ha): 100
Plant response rating: Mustard, Wild (wild mustard; 62 g ai/ha): 100
Plant response rating: Mustard, Wild (wild mustard; 125 g ai/ha): 100
Plant response rating (0 to 100), Lambsquarters (lambsquarters [4]; [5]): 85
Plant response rating: Lambsquarters (lambsquarters [4]; 62 g ai/ha): 95
Plant response rating: Lambsquarters (lambsquarters [4]; 125 g ai/ha): 95
Plant response rating (0 to 100), Foxtail, Green (foxtail, green; [5]): 95
Plant response rating: Foxtail, Green (foxtail, green; 62 g ai/ha): 100
Plant response rating: Foxtail, Green (foxtail, green; 125 g ai/ha): 100
